Tests used:
[1] = test system: MCF-7 human breast tumor cells; assay: Inhibition of growth of MCF-7 human breast tumor cells; assay type: cell-based; conditions: MCF7, MCF-7 cells, medium with 0.001 mg/ml insulin
[2] = biological target: T1, estrogen receptor binding to an estrogen response element (Homo sapiens, UniProt P03372); assay: Inhibition of estrogen receptor binding to an estrogen response element in DNA mobility shift assays; assay type: biochemical, human (nuclear extract of MCF-7 human breast cancer cells)
T1 construct: estrogen receptor extracted from MCF-7 human breast tumor cells; endogenous in cells; host or cells: MCF-7 human breast cancer cells (nuclear extract, cytosol or whole cell extract)
T1 sequence (P03372 1-595): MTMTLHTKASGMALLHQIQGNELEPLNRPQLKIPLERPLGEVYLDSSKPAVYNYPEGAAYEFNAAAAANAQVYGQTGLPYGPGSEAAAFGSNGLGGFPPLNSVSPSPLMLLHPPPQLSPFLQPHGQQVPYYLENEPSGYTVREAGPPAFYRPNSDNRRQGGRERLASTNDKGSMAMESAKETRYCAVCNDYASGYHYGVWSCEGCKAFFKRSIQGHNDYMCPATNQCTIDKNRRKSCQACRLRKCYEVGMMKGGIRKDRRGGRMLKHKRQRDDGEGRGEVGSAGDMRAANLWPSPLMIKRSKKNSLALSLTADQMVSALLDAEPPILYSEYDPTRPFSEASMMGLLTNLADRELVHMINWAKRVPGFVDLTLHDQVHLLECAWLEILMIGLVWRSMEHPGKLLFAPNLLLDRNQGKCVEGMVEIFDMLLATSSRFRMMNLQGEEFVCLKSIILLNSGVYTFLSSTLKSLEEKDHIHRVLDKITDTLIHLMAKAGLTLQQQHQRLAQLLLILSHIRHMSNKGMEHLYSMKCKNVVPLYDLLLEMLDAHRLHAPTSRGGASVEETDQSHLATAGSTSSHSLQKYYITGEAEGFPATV
Procedure: Monolayers of MCF-7 human breast cancer cells are rinsed once with HBSS and scraped off culture dishes into 15 ml conical tubes with 5 ml HBSS. The cells are sedimented by centrifugation at 250×g for five minutes, suspended in 1 ml HBSS and sedimented by centrifugation at 2000 rpm in a tabletop centrifuge for five minutes in a 1.5 ml microfuge tube. Two PCV of a solution of a lysis buffer (25 mM HEPES, pH 7.8, 50 mM KCl, 0.5% Nonidet P 40, 2 mM dithiothreitol, 0.2 mM phenylmethylsulfonyl fluoride, 0.05 mg/ml leupeptin, 0.05 mg/ml aprotinin, 0.0025 mg/ml pepstatin, 0.005 mg/ml antipain) are added and cells are kept on ice for 15 minutes. Lysed cells are centrifuged for 3 minutes at 10,000×g, supernatant decanted, and kept as the cytosol fraction. Pellets are suspended in two PCV of extraction buffer (25 mM HEPES, pH 7.8, 500 mM KCl, 10% glycerol, 2 mM dithiothreitol and the above protease inhibitors), mixed for 20 minutes by inversion at 4 degrees C. and centrifuged at 10,000×g for 20 minutes. The supernatant is decanted and saved as nuclear extract. Both the nuclear extract and the cytosol are dialyzed for two hours against dialysis buffer (25 mM HEPES, pH 7.8, 50 mM KCl, 10% glycerol, 2 mM dithiothreitol and the above protease inhibitors). Nuclear and cytosol fractions are stored frozen at -80 degrees C. until used for mobility shift assays or determination of estrogen receptor content.
Briefly, to each reaction tube was added 0.01 mg nuclear extract, 2 μg poly dIdC, 50 mM NaCl, 1 mM dithiothreitol and 10 mM Tris, pH 7.5 in a total volume of 0.01 ml and the mixture was kept at room temperature for 10 minutes. A ^32 P-labelled estrogen response element [ERE]

estrogen receptor mRNA = assay: Reduction of estrogen receptor mRNA levels in treated MCF-7 human breast tumor cells; assay type: cell-based;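 on Estrogen Receptor mRNA band intensity: Phosphoimager intensity of radioactive mRNA bands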
Procedure: After treatment with 30 μM drug for 24 hr, total RNA is isolated according to the guanidinium isothiocyanate method using an RNA preparation kit from 5 Prime-3 Prime, Inc., following the manufacturer's instructions. The RNA is separated by formaldehyde gel electrophoresis and transferred to a nylon membrane.

MCF-7 estrogen receptor = biological target: T2, MCF-7 estrogen receptor (Homo sapiens, UniProt P03372); assay: Competitive binding assay, Relative Binding Affinities on binding of estradiol to MCF-7 estrogen receptor
T2 construct: estrogen receptor extracted from MCF-7 human breast tumor cells; endogenous in cells; host or cells: MCF-7 human breast cancer cells (nuclear extract, cytosol or whole cell extract)
T2 sequence (P03372 1-595): T1 sequence (P03372 1-595)
Procedure: Briefly, RBAs are determined from competitive binding assays with several concentrations of estradiol (E2) with and without test compound. After 16-18 hours of incubation at 4 degrees C., unbound [^3 H] E2 is separated from ER-bound [^3 H] E2. The IC50 is determined and the RBA is calculated as: […]

[3] = read-out: integrated volume of shifted ERE oligo as percentage of control, given as % inhibition

Compound: CCCCN(C)C(=O)CCCCCCCNC(=O)Cc1c(C)n(C(=O)c2ccc(Cl)cc2)c2ccc(O)cc12 [MDL 101,906, 8-[[5-Hydroxy-1-(4-chlorobenzoyl)-2-methyl-1H-indol-3-yl]-acetylamino]-octanoic acid methyl-butyl-amide]
- IC50 [1]: 3.8 µM
- IC50 [2]: 8.5 µM
- inhibition at 2 µM [2, 3]: 81%
- inhibition at 5 µM [2, 3]: 76%
- inhibition at 10 µM [2, 3]: 46%
- inhibition at 20 µM [2, 3]: 38%
- ER/GAPDH mean (estrogen receptor mRNA; 30 μM, 24 hr, mean of replicates 1 and 2): 0.53
- ER/GAPDH (estrogen receptor mRNA; 30 μM, 24 hr, replicate 1): 0.98
- Estrogen Receptor mRNA band intensity (estrogen receptor mRNA; 30 μM, 24 hr, replicate 1): 5,142
- ER/GAPDH (estrogen receptor mRNA; 30 μM, 24 hr, replicate 2): 0.38
- Estrogen Receptor mRNA band intensity (estrogen receptor mRNA; 30 μM, 24 hr, replicate 2): 1,916
- activity at 30 µM (estrogen receptor mRNA; Homo sapiens, MCF7, 24 h, read-out: ER/GAPDH % Control): 18%
- inhibition of estradiol binding to MCF-7 ER (MCF-7 estrogen receptor; doses of 100 or 200 nM): did not significantly inhibit
- inhibition of estradiol binding to MCF-7 ER (MCF-7 estrogen receptor; typically, at doses of 100 or 200 nM): less than 10%
